# How the values were obtained:
# BPD6 tumors = experiment: BPD6 syngeneic melanoma tumor model in ovariectomized mice (tumor growth, flow cytometry); assay type: in vivo, mouse
# Description: FIGS. 18E-18G show quantification of M1 macrophages (MHCII^hi CD206^−ive), GZMB^+CD8^+ T cells, and PD1^+CD8^+ T cells in YuMM5.2 tumors from FIG. 18C (n=4). […] Vehicle+IgG (n=10, red), fulvestrant+IgG (n=15, blue), vehicle+ICB (n=15, black), and fulvestrant+ICB (n=15, brown). Black arrow indicates start of ICB treatment regimen. […] Vehicle+IgG (n=9, red), fulvestrant+IgG (n=8, blue), vehicle+ICB (n=9, black), and fulvestrant+ICB (n=10, brown). Black arrow indicates start of anti-PD1 treatment regimen. […] FIGS. 18A-18C are representative of two individual experiments. Data are expressed as mean 3 S.E.M. Significance was calculated by one-way ANOVA followed by Bonferroni's multiple correction (FIG. 18K), by Student's t test (FIG. 18L), and by log rank test (FIG. 18M) (*p<0.05, **p<0.01, and ***p<0.001).
# Tumor models and cells. The mouse B16F10 and Yumm5.2 cell lines were purchased from American Type Culture Collection (ATCC, Manassas, VA). The mouse melanoma cell line BPD6 was established from iBP as described elsewhere (Zhao et al., Immunity 2018, 48, 147-160). B16F10 and BPD6 cells were maintained in Dulbecco's Modified Eagle's Medium (DMEM) supplemented with 8% fetal bovine serum (FBS), 0.1 mM non-essential amino acids (NEAA) and 1 mM sodium pyruvate. YuMM5.2 cells were maintained in DMEM/F12 media supplemented with 10% FBS. The cells were replated 3 times/week at a confluency of 1:10 and were kept in a 37° C. incubator at 5% CO2. For subcutaneous tumor models B16F10 (5×10^4 or 1×10^5), YuMM5.2 (5×10^5), and BPD6 (5×10^5) cells were injected into the right flank of the mice. For iBP mice, tumors were induced with a single intradermal dose of 4-hydroxytamoxifen in DMSO (150 μg/mouse). Tumors were measured thrice weekly using an electronic caliper. Tumor volumes were calculated by the formula V=L×(W×W)/2. For iBP mouse tumors, volumes were calculated by the formula V=L×B×H. For tumor growth rate studies mice were euthanized when the tumors reached a maximum size of 2000 mm^3.
# Ovarlectomy and subcutaneous pellet Insertion. Ovariectomy was performed as previously described (Nelson et al., Science 2013, 342, 1094-1098). Eight days prior to tumor inoculation, 7 weeks old C57BL/6J or 5 weeks old (iBP) female mice were subjected to ovariectomy or sham surgery. Mice were anesthetized in an inhalation chamber (2% Isoflurane) and maintained in half the dose of isoflurane (1%) via nose cone throughout the surgical process. Prior to surgery, mice were administered a 5 mg/kg dose of carprofen subcutaneously. The area below the ribs was shaved with an electronic razor and the skin was sterilized by rubbing with betadine and alcohol (3× alternating). A horizontal incision was made through the skin above the ovary fat pad, followed by a vertical incision through the abdominal muscle wall. The ovary was externalized and removed using a cauterizing scissors (or returned if sham). Fat pad was replaced, and muscle walls were opposed and sutured (1-2 stitches). Following suturing, 1 drop of bupivacaine (0.25%) was added on top of the incision site. The skin was opposed, and a wound clip was placed on the incision site. This was repeated for the other ovary. The mouse was then removed from anesthesia and kept in a clean cage and monitored until conscious. The mice were monitored for recovery for 10 days.
# Fulvestrant treatment Mice were injected with fulvestrant (Cat #HY-13636 MedChemExpress) 2 days after tumor injection at a dose of 25 mg/kg via intramuscular route. […]
# [1] = test system: T cells co-cultured with BMDM; experiment: T cells co-cultured with bone marrow-derived macrophages (BMDM) polarized to M2; assay type: cell-based, mouse; settings: for proliferation of T cells (CFSE dilution): macrophages differentiated in NM
# Experimental: In vitro bone marrow-derived macrophage differentiation. For this purpose, bone marrow cells were aseptically collected from 8-10 weeks old female C57BL/6J mice by crushing the femurs and tibias in PBS, […] and 2 mM EDTA. Cells were added to ACK buffer to lyse the red blood cells for 2 mins with intermediate vortexing. The solution was filtered through a 40 μm strainer to remove bone fragments. To differentiate bone marrow cells to macrophages the cells were plated in DMEM media (100%) or DMEM media (70%) and 30% tumor-conditioned media, supplemented with 10% heat-inactivated charcoal-stripped serum in the presence of 30 ng/mL MCSF (Cat #312-02, PeproTech). After 3 days cells were supplemented with 50% of respective fresh media. On day 6 the media was removed and replaced with fresh media. […] For polarization, cells were further treated with LIPS (100 ng/mL, Cat L2630, Sigma Aldrich) and IFNγ (20 ng/mL, Cat #315-05, PeproTech) (24 hr) for M1 polarization or IL4 (10 ng/mL, cat #214-14, PeproTech) for M2 polarization.
# T cell proliferation assay and staining. CD3+ T cells were isolated from the spleens of C57BL/6J or P-mel mice with magnetic bead-based T cell isolation kit (Cat #19851, StemCell Technologies). T cells from naïve mice were stained with 5 μM CFSE (Cat #C34554, ThermoFisher Scientific) for 5 minutes in PBS+5% CFS with rapid vortexing following which the cells were washed twice with PBS. Stained T cells were then counted and plated in 96-well plates coated with anti-CD3 antibody (0.5 μg/mL, Cat #19851, ThermoFisher Scientific) anti-CD28 antibody (1 μg/mL, Cat #16-0281-86, Thermo Fisher Scientific) at desired density (250,000 T cells/50,000 CD11b or BMDM) in the presence of IL2 (50 ng/mL) (Cat #212-12, PeproTech). 72 hr after plating the cells were incubated with protein transport inhibitors brefeldin (Cat #00-4506-51, Thermo Fisher Scientific) and monensin (Cat #00-4505-51, Thermo Fisher Scientific) for 6 hr at a final concentration of 2 μM monensin and 3 μg/mL brefeldin after which they were collected and were processed for staining for flow cytometry.
# Of note, no changes in the percentage of Ly6C+/Ly6G+ MDSCs in tumors between the two treatment conditions were observed (FIG. 10D). […] The addition of tumor conditioned media allows the TME to be partially mimicked where tumor derived factors influence the differentiation and polarization of macrophages. […] The polarized macrophages were subsequently co-cultured with sub-optimally activated T cells (CD3/CD28 and IL2) isolated from spleens of non-tumor bearing mice, for 72 hr following which they were treated with protein transport inhibitors (monensin and brefeldin) for 6 hr to prevent release of cytokines and chemokines.
Molecule,intratumoral M1/M2 ratio (BPD6 tumors; E2 treated mice co-treated with fulvestrant),"tumor growth (BPD6 tumors; PD1 sensitive model, fulvestrant alone)","tumor growth (BPD6 tumors; fulvestrant 25 mg/kg, E2 supplemented mice)","E2-induced suppression of T cell proliferation ([1]; macrophages differentiated in 30% TCM, E2 (1 nM)+fulvestrant (100 nM))",proliferation of T cells (CFSE dilution) ([1]; E2+fulvestrant),"tumor growth (BPD6 tumors; E2 vs placebo, ovariectomized C57BL/6J)","percentage of Ly6C+/Ly6G+ MDSCs in tumors (BPD6 tumors; flow cytometry, E2 vs placebo)","proliferation of T cells (CFSE) ([1]; BMDM from Esr1^f/f and Esr1^f/f, LysMCre differentiated in NM, DMSO or E2)",T cell proliferation (CFSE dilution) ([1]; macrophages differentiated in 30% TCM and E2),proliferation of T cells (CFSE dilution) ([1]; E2),"expression of GZMB and IFNγ in T cells ([1]; macrophages differentiated in TCM, E2 1 nM vs DMSO)","expression of IFNγ and GZMB in T cells ([1]; macrophages in normal media (NM), E2 1 nM)"
C[C@]12CC[C@@H]3c4ccc(O)cc4C[C@@H](CCCCCCCCC[S+]([O-])CCCC(F)(F)C(F)(F)F)[C@H]3[C@@H]1CC[C@@H]2O (stereo partly drawn) [fulvestrant],increase,slows tumor growth,significantly reduced,reversed,not affected,–,–,–,–,–,–,–
17β-estradiol [E2],–,–,–,–,–,significantly increased,no changes,No difference,effectively suppressed,not affected,decreased expression,did not display any change

# From patent US20240398831A1, “COMPOSITIONS COMPRISING SMALL MOLECULE REGULATORS OF TUMOR IMMUNITY AND METHODS OF USING SAME” (Duke University, priority 2021, published 2024)
